Results as given in patent publication US10077261B2, “Imidazolin-5-one derivative useful as FASN inhibitors for the treatment of cancer” (Janssen Pharmaceutica NV, priority 2012, dated 2018).

Target: T1, hFASN enzyme (full length) (Homo sapiens, UniProt P49327)
T1 construct: 10 μL hFASN enzyme (full length, 300 ng, purified in house); made in house
Assay: Fatty Acid Synthase (FASN) inhibition scintillation proximity assay
Type: biochemical
Settings: for inhibition at 10 µM: read-out: Human FASN % inhibition @ 10 μM, 10 μM test compound; for IC50: read-out: Human FASN pIC50 (converted)
Outline: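 Full-length in-house purified enzyme (300 ng) was tested in 100 mM KH2PO4 pH 7.5, 1 mM DTT with ³H-acetyl-CoA and malonyl-CoA as substrates; compounds ranged 0.01–30 μM. Reactions were stopped with streptavidin imaging beads, read by LEADseeker at 610 nm, and fitted to a 4-parameter logistic curve.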

T1 sequence (P49327 whole entry): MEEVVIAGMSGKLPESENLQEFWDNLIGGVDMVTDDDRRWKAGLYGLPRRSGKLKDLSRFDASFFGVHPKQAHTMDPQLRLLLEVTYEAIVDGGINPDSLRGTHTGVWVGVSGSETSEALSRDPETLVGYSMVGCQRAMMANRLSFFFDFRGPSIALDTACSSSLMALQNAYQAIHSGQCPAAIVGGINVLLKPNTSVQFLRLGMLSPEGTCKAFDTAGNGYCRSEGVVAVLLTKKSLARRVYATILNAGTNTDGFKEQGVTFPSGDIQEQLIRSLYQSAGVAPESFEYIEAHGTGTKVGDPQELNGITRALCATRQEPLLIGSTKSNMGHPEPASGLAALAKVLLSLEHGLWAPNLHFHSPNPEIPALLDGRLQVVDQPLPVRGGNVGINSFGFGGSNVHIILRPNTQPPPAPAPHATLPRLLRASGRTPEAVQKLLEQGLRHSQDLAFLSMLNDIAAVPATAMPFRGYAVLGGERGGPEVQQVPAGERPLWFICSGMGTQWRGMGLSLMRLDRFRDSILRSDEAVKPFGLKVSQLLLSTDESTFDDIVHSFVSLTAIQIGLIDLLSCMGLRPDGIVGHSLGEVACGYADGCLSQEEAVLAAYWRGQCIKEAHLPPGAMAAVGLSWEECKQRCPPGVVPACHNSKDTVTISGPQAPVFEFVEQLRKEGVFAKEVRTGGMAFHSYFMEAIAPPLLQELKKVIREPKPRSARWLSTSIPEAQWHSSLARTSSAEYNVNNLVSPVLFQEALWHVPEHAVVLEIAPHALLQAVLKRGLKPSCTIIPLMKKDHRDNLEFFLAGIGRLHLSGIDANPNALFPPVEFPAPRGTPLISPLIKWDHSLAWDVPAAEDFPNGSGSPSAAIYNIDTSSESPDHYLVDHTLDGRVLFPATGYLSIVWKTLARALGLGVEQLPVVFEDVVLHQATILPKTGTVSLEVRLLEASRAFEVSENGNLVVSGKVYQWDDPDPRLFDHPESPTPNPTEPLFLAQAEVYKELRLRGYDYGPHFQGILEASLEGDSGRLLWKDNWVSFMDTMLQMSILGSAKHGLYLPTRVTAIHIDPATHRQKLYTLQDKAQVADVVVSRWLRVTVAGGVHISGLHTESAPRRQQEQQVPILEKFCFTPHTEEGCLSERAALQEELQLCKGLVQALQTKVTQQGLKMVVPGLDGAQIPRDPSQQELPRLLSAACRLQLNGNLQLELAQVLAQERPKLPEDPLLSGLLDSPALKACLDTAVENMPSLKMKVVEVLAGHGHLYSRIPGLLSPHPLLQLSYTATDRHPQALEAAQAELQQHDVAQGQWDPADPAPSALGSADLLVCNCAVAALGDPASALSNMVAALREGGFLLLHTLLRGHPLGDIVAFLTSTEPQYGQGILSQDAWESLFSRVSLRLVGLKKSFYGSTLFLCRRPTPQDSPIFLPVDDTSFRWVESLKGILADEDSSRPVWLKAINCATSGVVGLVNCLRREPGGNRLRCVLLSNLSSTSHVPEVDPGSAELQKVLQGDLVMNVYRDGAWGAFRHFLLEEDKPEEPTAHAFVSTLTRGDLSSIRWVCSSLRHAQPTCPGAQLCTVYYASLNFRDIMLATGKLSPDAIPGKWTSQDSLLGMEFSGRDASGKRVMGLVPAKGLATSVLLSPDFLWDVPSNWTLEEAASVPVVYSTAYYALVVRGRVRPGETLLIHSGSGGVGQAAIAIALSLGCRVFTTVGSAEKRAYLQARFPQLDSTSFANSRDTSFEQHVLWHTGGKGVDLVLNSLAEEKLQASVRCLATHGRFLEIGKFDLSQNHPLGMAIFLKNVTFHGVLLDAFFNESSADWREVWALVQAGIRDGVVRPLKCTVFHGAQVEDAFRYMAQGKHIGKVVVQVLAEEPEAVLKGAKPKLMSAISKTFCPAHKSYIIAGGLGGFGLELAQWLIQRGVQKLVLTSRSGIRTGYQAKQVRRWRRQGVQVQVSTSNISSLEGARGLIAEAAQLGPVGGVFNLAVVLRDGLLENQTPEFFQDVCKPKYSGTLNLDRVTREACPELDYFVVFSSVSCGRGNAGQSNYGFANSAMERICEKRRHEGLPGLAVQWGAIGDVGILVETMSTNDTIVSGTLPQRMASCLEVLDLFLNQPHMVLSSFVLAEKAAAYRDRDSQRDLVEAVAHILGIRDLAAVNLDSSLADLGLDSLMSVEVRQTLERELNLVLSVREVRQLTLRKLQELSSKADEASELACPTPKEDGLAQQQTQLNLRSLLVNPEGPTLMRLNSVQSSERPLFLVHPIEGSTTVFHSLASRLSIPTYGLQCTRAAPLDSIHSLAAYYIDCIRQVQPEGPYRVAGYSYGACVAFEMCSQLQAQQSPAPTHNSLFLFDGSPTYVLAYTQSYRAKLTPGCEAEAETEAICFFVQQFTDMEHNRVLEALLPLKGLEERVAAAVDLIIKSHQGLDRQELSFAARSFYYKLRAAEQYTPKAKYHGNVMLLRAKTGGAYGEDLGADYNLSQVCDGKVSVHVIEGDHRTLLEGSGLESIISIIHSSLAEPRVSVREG

Row | Structure (SMILES) | inhibition at 10 µM [%] | IC50 [nM]
1 | O=C(N1CCCC1)N1CC(CN2C(=O)C3(CCOCC3)N=C2c2ccc(-c3ccc4occc4c3)cc2)C1 [compound 705, 2-[4-(1-Benzofuran-5-yl)phenyl]-3-{[1-(pyrrolidin-1-ylcarbonyl)azetidin-3-yl]methyl}-8-oxa-1,3-diazaspiro[4.5]dec-1-en-4-one] | 71 | 2690
2 | Cn1ncc2cc(-c3ccc(C4=NC5(CCOCC5)C(=O)N4CC4CN(C(=O)C5CC5)C4)cc3)ccc21 [compound 706, 3-{[1-(Cyclopropylcarbonyl)azetidin-3-yl]methyl}-2-[4-(1-methyl-1H-indazol-5-yl)phenyl]-8-oxa-1,3-diazaspiro[4.5]dec-1-en-4-one] | 65 | ~2340
3 | CC(O)C(=O)N1CC(CN2C(=O)C3(CCOCC3)N=C2c2ccc(-c3ccc4c(cnn4C)c3)cc2)C1 (centres unmarked) [compound 707, 3-{[1-(2-Hydroxypropanoyl)azetidin-3-yl]methyl}-2-[4-(1-methyl-1H-indazol-5-yl)phenyl]-8-oxa-1,3-diazaspiro[4.5]dec-1-en-4-one] | 55 | 6460
4 | Cn1ncc2cc(-c3ccc(C4=NC5(CCOCC5)C(=O)N4CC4CN(C(=O)[C@H]5CCCO5)C4)cc3)ccc21 [compound 708, 2-[4-(1-Methyl-1H-indazol-5-yl)phenyl]-3-({1-[(2R)-tetrahydro-furan-2-ylcarbonyl]azetidin-3-yl}methyl)-8-oxa-1,3-diazaspiro[4.5]dec-1-en-4-one] | 76 | 1860
5 | Cn1ncc2cc(-c3ccc(C4=NC5(CCOCC5)C(=O)N4CC4CN(C(=O)N5CCCC5)C4)cc3)ccc21 [compound 709, 2-[4-(1-Methyl-1H-indazol-5-yl)phenyl]-3-{[1-(pyrrolidin-1-ylcarbonyl)azetidin-3-yl]methyl}-8-oxa-1,3-diazaspiro[4.5]dec-1-en-4-one] | 64 | 4070
6 | Cn1cc(-c2ccc(-c3ccc(C4=NC5(CCOC5)C(=O)N4CC4CN(C(=O)C5CC5)C4)cc3)cc2)cn1 (centres unmarked) [compound 710, 3-{[1-(Cyclopropylcarbonyl)azetidin-3-yl]methyl}-2-[4′-(1-methyl-1H-pyrazol-4-yl)biphenyl-4-yl]-7-oxa-1,3-diazaspiro[4.4]non-1-en-4-one] | 66 | 2820
7 | CC(O)C(=O)N1CC(CN2C(=O)C3(CCOC3)N=C2c2ccc(-c3ccc(-c4cnn(C)c4)cc3)cc2)C1 (centres unmarked) [compound 711, 3-{[1-(2-Hydroxypropanoyl)azetidin-3-yl]methyl}-2-[4′-(1-methyl-1H-pyrazol-4-yl)biphenyl-4-yl]-7-oxa-1,3-diazaspiro[4.4]non-1-en-4-one] | 60 | 6030
8 | Cn1cc(-c2ccc(-c3ccc(C4=NC5(CCOC5)C(=O)N4CC4CN(C(=O)[C@H]5CCCO5)C4)cc3)cc2)cn1 (stereo partly drawn) [compound 712, 2-[4′-(1-Methyl-1H-pyrazol-4-yl)biphenyl-4-yl]-3-({1-[(2R)-tetrahydro-furan-2-ylcarbonyl]azetidin-3-yl}methyl)-7-oxa-1,3-diazaspiro[4.4]non-1-en-4-one] | 69 | 2450
9 | Cn1cc(-c2ccc(-c3ccc(C4=NC5(CCOC5)C(=O)N4CC4CN(C(=O)N5CCCC5)C4)cc3)cc2)cn1 (centres unmarked) [compound 713, 2-[4′-(1-Methyl-1H-pyrazol-4-yl)biphenyl-4-yl]-3-{[1-(pyrrolidin-1-ylcarbonyl)azetidin-3-yl]methyl}-7-oxa-1,3-diazaspiro[4.4]non-1-en-4-one] | 59 | ~6760
10 | O=C(C1CC1)N1CC(CN2C(=O)C3(CCOC3)N=C2c2ccc(-c3ccc4occc4c3)cc2)C1 (centres unmarked) [compound 718, 2-[4-(1-Benzofuran-5-yl)phenyl]-3-{[1-(cyclopropylcarbonyl)azetidin-3-yl]methyl}-7-oxa-1,3-diazaspiro[4.4]non-1-en-4-one] | 72 | ~2400
